Measured values: publication PMC9848300, “Discovery of novel enasidenib analogues targeting inhibition of mutant isocitrate dehydrogenase 2 as antileukaemic agents” (Journal of Enzyme Inhibition and Medicinal Chemistry, 2023)
Read-outs that look alike come from different tables or passages of the source.

How the values were obtained:
[1] = test system: DU-145; experiment: NCI 60 antitumor screening (single dose / five doses); format: cell-based; details: Homo sapiens; for inhibition at 10 µM: DU-145 (prostate cancer), single dose 10 μM, read-out: Growth inhibition percentage (GI %); for GI50: DU-145, five doses (0.01–100 μM), read-out: GI50
[2] = test system: IGROV1; experiment: as above; format: cell-based; details: Homo sapiens, IGROV-1; for inhibition at 10 µM: IGROV1 (ovarian cancer), single dose 10 μM, read-out: Growth inhibition percentage (GI %); for GI50: IGROV1, five doses (0.01–100 μM), read-out: GI50
[3] = test system: A549/ATCC; experiment: NCI 60 antitumor screening (single dose); format: cell-based; details: Homo sapiens; A549/ATCC (non-small cell lung cancer), single dose 10 μM; read-out: Growth inhibition percentage (GI %)
Summary of the method: (§1)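 Read-out is percent growth (G%) of treated cancer cells relative to untreated, converted to percent inhibition as 100 − G%. Each compound was applied once at 10 μM across 60 human tumour lines under the NCI protocol.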

[4] = test system: SNB-19; experiment: NCI 60 antitumor screening (single dose); format: cell-based; details: Homo sapiens; SNB-19 (CNS cancer), single dose 10 μM; read-out: Growth inhibition percentage (GI %)
Summary of the method: as §1

[5] = test system: HOP-62; experiment: NCI 60 antitumor screening (single dose); format: cell-based; details: Homo sapiens; HOP-62 (non-small cell lung cancer), single dose 10 μM; read-out: Growth inhibition percentage (GI %)
Summary of the method: (§2)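 NCI-60 protocol: single 10 μM dose against each cell line, run in triplicate. Percent growth (G%) of treated cells measured and growth inhibition reported as GI% = 100 − G%; panel mean also given.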

[6] = test system: OVCAR-3; experiment: NCI 60 antitumor screening (single dose); format: cell-based; details: Homo sapiens; OVCAR-3 (ovarian cancer), single dose 10 μM; read-out: Growth inhibition percentage (GI %)
Summary of the method: as §1

[7] = test system: SK-OV-3; experiment: NCI 60 antitumor screening (single dose); format: cell-based; details: Homo sapiens; SK-OV-3 (ovarian cancer), single dose 10 μM; read-out: Growth inhibition percentage (GI %)
Summary of the method: as §2

[8] = test system: NCI-H23; experiment: NCI 60 antitumor screening (single dose); format: cell-based; details: Homo sapiens; NCI-H23 (non-small cell lung cancer), single dose 10 μM; read-out: Growth inhibition percentage (GI %)
Summary of the method: as §2

[9] = test system: NCI-H460; experiment: NCI 60 antitumor screening (single dose); format: cell-based; details: Homo sapiens; NCI-H460 (non-small cell lung cancer), single dose 10 μM; read-out: Growth inhibition percentage (GI %)
Summary of the method: as §2

[10] = test system: NCI-H522; experiment: NCI 60 antitumor screening (single dose); format: cell-based; details: Homo sapiens; NCI-H522 (non-small cell lung cancer), single dose 10 μM; read-out: Growth inhibition percentage (GI %)
Summary of the method: as §2

[11] = test system: NCI-H322M; experiment: NCI 60 antitumor screening (single dose); format: cell-based; details: Homo sapiens; NCI-H322M (non-small cell lung cancer), single dose 10 μM; read-out: Growth inhibition percentage (GI %)
Summary of the method: as §1

[12] = test system: SF-268; experiment: NCI 60 antitumor screening (single dose); format: cell-based; details: Homo sapiens; SF-268 (CNS cancer), single dose 10 μM; read-out: Growth inhibition percentage (GI %)
Summary of the method: as §2

[13] = test system: OVCAR-5; experiment: NCI 60 antitumor screening (single dose); format: cell-based; details: Homo sapiens; OVCAR-5 (ovarian cancer), single dose 10 μM; read-out: Growth inhibition percentage (GI %)
Summary of the method: as §2

[14] = test system: OVCAR-8; experiment: NCI 60 antitumor screening (single dose); format: cell-based; details: Homo sapiens; OVCAR-8 (ovarian cancer), single dose 10 μM; read-out: Growth inhibition percentage (GI %)
Summary of the method: as §1

[15] = test system: U251; experiment: NCI 60 antitumor screening (single dose); format: cell-based; details: Homo sapiens, U-251; U251 (CNS cancer), single dose 10 μM; read-out: Growth inhibition percentage (GI %)
Summary of the method: as §2

[16] = test system: MCF7; experiment: NCI 60 antitumor screening (single dose); format: cell-based; details: Homo sapiens; MCF7 (breast cancer), single dose 10 μM; read-out: Growth inhibition percentage (GI %)
Summary of the method: as §1

[17] = test system: PC-3; experiment: NCI 60 antitumor screening (single dose); format: cell-based; details: Homo sapiens; PC-3 (prostate cancer), single dose 10 μM; read-out: Growth inhibition percentage (GI %)
Summary of the method: as §1

[18] = test system: NCI-H226; experiment: NCI 60 antitumor screening (single dose); format: cell-based; details: Homo sapiens; NCI-H226 (non-small cell lung cancer), single dose 10 μM; read-out: Growth inhibition percentage (GI %)
Summary of the method: as §1

[19] = test system: KM 12; experiment: NCI 60 antitumor screening (single dose); format: cell-based; details: Homo sapiens, KM12; KM 12 (colon cancer), single dose 10 μM; read-out: Growth inhibition percentage (GI %)
Summary of the method: as §1

[20] = test system: CAKI-1; experiment: NCI 60 antitumor screening (single dose); format: cell-based; details: Homo sapiens; CAKI-1 (renal cancer), single dose 10 μM; read-out: Growth inhibition percentage (GI %)
Summary of the method: as §1

[21] = test system: HCC-2998; experiment: NCI 60 antitumor screening (single dose); format: cell-based; details: Homo sapiens; HCC-2998 (colon cancer), single dose 10 μM; read-out: Growth inhibition percentage (GI %)
Summary of the method: as §2

[22] = test system: OVCAR-4; experiment: NCI 60 antitumor screening (single dose); format: cell-based; details: Homo sapiens; OVCAR-4 (ovarian cancer), single dose 10 μM; read-out: Growth inhibition percentage (GI %)
Summary of the method: as §1

[23] = test system: SW-620; experiment: NCI 60 antitumor screening (single dose / five doses); format: cell-based, human; details: for GI50: read-out: GI50; for inhibition at 10 µM: SW-620 (colon cancer), single dose 10 μM, read-out: Growth inhibition percentage (GI %)
[24] = test system: RXF 393; experiment: as above; format: cell-based; details: Homo sapiens; for inhibition at 10 µM: RXF 393 (renal cancer), single dose 10 μM, read-out: Growth inhibition percentage (GI %); for GI50: RXF 393, five doses (0.01–100 μM), read-out: GI50
[25] = test system: SK-MEL-28; experiment: as above; format: cell-based; details: Homo sapiens; for inhibition at 10 µM: SK-MEL-28 (melanoma), single dose 10 μM, read-out: Growth inhibition percentage (GI %)
[26] = test system: SF-295; experiment: as above; format: cell-based; details: Homo sapiens; for inhibition at 10 µM: SF-295 (CNS cancer), single dose 10 μM, read-out: Growth inhibition percentage (GI %); for GI50: SF-295, five doses (0.01–100 μM), read-out: GI50
[27] = Homo sapiens, SW-620, SW-620, five doses (0.01–100 μM)

SMILES | inhibition at 10 µM [1] | inhibition at 10 µM [2] | inhibition at 10 µM [3] | inhibition at 10 µM [4] | inhibition at 10 µM [5] | inhibition at 10 µM [6] | inhibition at 10 µM [7] | inhibition at 10 µM [8] | inhibition at 10 µM [9] | inhibition at 10 µM [10] | inhibition at 10 µM [11] | inhibition at 10 µM [12] | inhibition at 10 µM [13] | inhibition at 10 µM [14] | inhibition at 10 µM [15] | inhibition at 10 µM [16] | inhibition at 10 µM [17] | inhibition at 10 µM [18] | inhibition at 10 µM [19] | inhibition at 10 µM [20] | also measured
Brc1cccc(/C=N/Nc2nc(N/N=C/c3cccc(Br)c3)nc(N3CCOCC3)n2)c1 [compound 6c, 2,4-Bis[(E)-2-[(3-bromophenyl)methylidene]hydrazin-1-yl]-6-(morpholin-4-yl)-1,3,5-triazine] | 72.7% | 57.2% | 57.4% | 22.1% | 47.7% | 57.5% | 7.13% | 56.9% | 58.8% | 66.5% | 47.2% | 31.6% | 27.6% | 62.6% | 57.3% | 77.9% | 63.5% | 56.7% | 69.7% | 84.6% | GI50 [1]: 1.31 µM; GI50 [2]: 2.92 µM; inhibition at 10 µM [21]: 68.5%; inhibition at 10 µM [22]: 45.8%; GI50 [23, 27]: 0.82 µM; inhibition at 10 µM ([23]; Homo sapiens): 75.3%; GI50 ([23]; SW-620, five doses (0.01–100 μM)): 0.83 µM; inhibition at 10 µM [24]: 168%; GI50 [24]: 0.16 µM; inhibition at 10 µM [25]: 82.9%; inhibition at 10 µM [26]: 70.9%; GI50 [26]: 4.94 µM
Clc1cccc(/C=N/Nc2nc(N/N=C/c3cccc(Cl)c3)nc(N3CCOCC3)n2)c1 [compound 6d, 2,4-Bis[(E)-2-[(3-chlorophenyl)methylidene]hydrazin-1-yl]-6-(morpholin-4-yl)-1,3,5-triazine] | 57.5% | 49.4% | 53.4% | 12.1% | -9.83% | 43.7% | -29.6% | 29.4% | 21.8% | 86.1% | 46.2% | 34.1% | 4.53% | 50.5% | 39.6% | 57% | 58.5% | 39.6% | 69.8% | 62.4% | GI50 [1]: 2.62 µM; GI50 [2]: 4.61 µM; inhibition at 10 µM [21]: 41%; inhibition at 10 µM [22]: 33.6%; GI50 [23, 27]: 1.78 µM; inhibition at 10 µM ([23]; Homo sapiens): 81.9%; inhibition at 10 µM [24]: 82.5%; GI50 [24]: 1 µM; inhibition at 10 µM [25]: 70.2%; GI50 ([25]; SK-MEL-28, five doses (0.01–100 μM), read-out: GI50): 2.86 µM; inhibition at 10 µM [26]: 42.4%; GI50 [26]: 4.13 µM
Fc1cccc(/C=N/Nc2nc(N/N=C/c3cccc(F)c3)nc(N3CCOCC3)n2)c1 [compound 6e, 2,4-Bis[(E)-2-[(3-Fluorophenyl)methylidene]hydrazin-1-yl]-6-(morpholin-4-yl)-1,3,5-triazine] | 40.5% | 18.4% | 6.5% | 1.85% | -5.63% | 19.3% | -17.7% | -1.55% | 5.44% | 4.23% | 3.82% | 4.91% | -3.81% | 8.56% | 23.8% | 19.3% | 24.5% | 5.56% | 0.3% | 11.3% | inhibition at 10 µM [21]: -2.3%; inhibition at 10 µM [22]: 0.54%; inhibition at 10 µM ([23]; Homo sapiens): 34%; inhibition at 10 µM [24]: 79.3%; inhibition at 10 µM [25]: 10.1%; inhibition at 10 µM [26]: -8.45%
